Columns and labels:
HIV-IIIb = assay: Test A: Antiviral Assay in MT4 Cells; type: cell-based, HIV-1; details: Human immunodeficiency virus 1, MT4, 120 h, inhibition of virus-induced cell killing, MT-4 cells, HIV-IIIb, 5 days, values normalized to 100%; for inhibition at 0.01 µM: from dose response curve at 0.01 μM (10 nM), read-out: % inhibition at 0.01 μM; for inhibition at 0.2 µM: from dose response curve at 0.20 μM (200 nM), read-out: % inhibition at 0.20 μM
Experimental: (§1) MT-4 cells were next mixed with HIV-IIIb at a multiplicity of infection (m.o.i.) of 0.003 for 1 hour, after which time 35 μL of virus/cell mixture (2000 cells) was immediately added to each well containing 40 μL of diluted compound. The plates were then incubated at 37° C. for 5 days. After 5 days of incubation, 25 μl of 2× concentrated CellTiter-Glo Reagent (catalog #G7571, Promega Biosciences, Inc., Madison, Wis.) was added to each well containing MT-4 cells. Cell lysis was carried out by incubating at room temperature for 10 min and then chemiluminescence was read.

[1] = Test B: Cytotoxicity Assay (same protocol as Test A, uninfected cells); type: cell-based; details: human, uninfected MT-4 cells, CellTiter-Glo
Experimental: as §1, with “read. […] Compound cytotoxicity and the corresponding CC50 values was determined using the same protocol as described in the antiviral assay (Test A) except that uninfected cells were used.” for “read.”

| Compound | inhibition at 0.01 µM (HIV-IIIb) | inhibition at 0.2 µM (HIV-IIIb) | CC50 at 5 days [1] |
| --- | --- | --- | --- |
| Cn1nc(NS(C)(=O)=O)c2c(Cl)ccc(-c3ccc(C#CC(C)(C)S(=O)(=O)C4CC4)nc3[C@H](Cc3cc(F)cc(F)c3)NC(=O)CCn3cccn3)c21 [Example 60] | 100% | 100% | 19.2 µM |
| Cn1nc(NS(C)(=O)=O)c2c(Cl)ccc(-c3ccc(C#CC(C)(C)S(=O)(=O)C4CC4)nc3[C@H](Cc3cc(F)cc(F)c3)NC(=O)Cn3nnc4ccccc43)c21 [Example 63] | 1% | 100% | 21.8 µM |
| Cn1nc(Nc2nnc(C(F)F)o2)c2c(Cl)ccc(-c3ccc(C#CC(C)(C)S(=O)(=O)C4CC4)nc3[C@H](Cc3cc(F)cc(F)c3)NC(=O)Cn3nc(C(F)F)c4c3C(F)(F)[C@@H]3C[C@H]43)c21 [Example 30] | 99% | 99% | > 57.1 µM |
| Cn1nc(NS(C)(=O)=O)c2c(Cl)ccc(-c3ccc(C#CC(C)(C)S(=O)(=O)C4CC4)nc3[C@H](Cc3cc(F)cc(F)c3)NC(=O)Cc3ncc[nH]3)c21 [Example 66] | 61% | 97% | 11.7 µM |
| Cn1nc(NS(C)(=O)=O)c2c(Cl)ccc(-c3ccc(C#CC(C)(C)S(=O)(=O)C4CC4)nc3[C@H](Cc3cc(F)cc(F)c3)NC(=O)Cn3nc(C(F)F)cc3C(F)F)c21 [Example 43] | 87% | 87% | > 57.1 µM |
| Cn1nc(NS(C)(=O)=O)c2c(Cl)ccc(-c3ccc(C#CC(C)(C)S(=O)(=O)C4CC4)nc3[C@H](Cc3cc(F)cc(F)c3)NC(=O)c3ccn[nH]3)c21 [Example 55] | 86% | 96% | 22.2 µM |
| Cn1nc(NS(C)(=O)=O)c2c(Cl)ccc(-c3ccc(C#CC(C)(C)S(=O)(=O)C4CC4)nc3[C@H](Cc3cc(F)cc(F)c3)NC(=O)Cc3nc4ccccc4[nH]3)c21 [Example 54] | 18% | 99% | 29.8 µM |
| Cn1nc(NS(C)(=O)=O)c2c(Cl)ccc(-c3ccc(C#CC(C)(C)S(=O)(=O)C4CC4)nc3[C@H](Cc3cc(F)cc(F)c3)NC(=O)Cn3ccnn3)c21 [Example 48] | 0% | 0% | > 57.1 µM |
| Cn1nc(NS(C)(=O)=O)c2c(Cl)ccc(-c3ccc(C#CC(C)(C)S(=O)(=O)C4CC4)nc3[C@H](Cc3cc(F)cc(F)c3)NC(=O)Cn3nc(C(F)F)c4c3C(F)(F)CCC4(F)F)c21 [Example 38] | 93% | 93% | > 57.1 µM |
| CC1(S(=O)(=O)Nc2nn(CC(F)(F)F)c3c(-c4ccc(C#CC(C)(C)S(=O)(=O)C5(C)CC5)nc4[C@H](Cc4cc(F)cc(F)c4)NC(=O)Cn4nc(C(F)(F)F)c5c4C(F)(F)[C@@H]4C[C@H]54)ccc(Cl)c23)CC1 [Example 32] | 100% | 100% | > 57.1 µM |
| Cn1nc(NS(C)(=O)=O)c2c(Cl)ccc(-c3ccc(C#CC(C)(C)S(=O)(=O)C4CC4)nc3[C@H](Cc3cc(F)cc(F)c3)NC(=O)Cn3nc(C(F)F)c(C4CC4)c3C(F)F)c21 [Example 59] | 81% | 93% | > 57.1 µM |
| Cn1nc(NS(C)(=O)=O)c2c(Cl)ccc(-c3ccc(C#CC(C)(C)S(=O)(=O)C4CC4)nc3[C@H](Cc3cc(F)cc(F)c3)NC(=O)Cc3nnn[nH]3)c21 [Example 46] | 0% | 10% | > 54.6 µM |
| CC(C)(C#Cc1ccc(-c2ccc(Cl)c3c(NS(=O)(=O)C4CC4)nn(C4COC4)c23)c([C@H](Cc2cc(F)cc(F)c2)NC(=O)Cn2nc(C(F)(F)F)c3c2C(F)(F)[C@@H]2C[C@H]32)n1)S(=O)(=O)C1CC1 [Example 69] | 92% | 92% | > 50 µM |
| Cn1nc(NS(C)(=O)=O)c2c(Cl)ccc(-c3ccc(C#CC(C)(C)S(=O)(=O)C4CC4)nc3[C@H](Cc3cc(F)cc(F)c3)NC(=O)Cn3ncc4ccccc43)c21 [Example 61] | 3% | 98% | 28.4 µM |
| Cn1nc(NS(=O)(=O)C2(C)CC2)c2c(Cl)ccc(-c3ccc(C#CC(C)(C)S(=O)(=O)C4CC4)nc3[C@H](Cc3cc(F)cc(F)c3)NC(=O)Cn3nc(C(F)F)c4c3C(F)(F)CCC4(F)F)c21 [Example 34] | 89% | 90% | > 57.1 µM |
| CCS(=O)(=O)Nc1nn(CC(F)F)c2c(-c3ccc(C#CC(C)(C)S(=O)(=O)C4CC4)nc3[C@H](Cc3cc(F)cc(F)c3)NC(=O)Cn3nc(C(F)(F)F)c4c3C(F)(F)[C@@H]3C[C@H]43)ccc(Cl)c12 [Example 11] | 92% | 92% | > 57.1 µM |
| Cn1nc(NS(C)(=O)=O)c2c(Cl)ccc(-c3ccc(C#CC(C)(C)S(=O)(=O)C4CC4)nc3[C@H](Cc3cc(F)cc(F)c3)NC(=O)Cn3cnnc3)c21 [Example 47] | 0% | 0% | > 57.1 µM |
| Cn1nc(NS(=O)(=O)C2CC2)c2c(Cl)ccc(-c3ccc(C#CC(C)(C)S(=O)(=O)C4CC4)nc3[C@H](Cc3cc(F)cc(F)c3)NC(=O)Cn3nc(C(F)F)c4c3C(F)(F)CCC4(F)F)c21 [Example 39] | 99% | 99% | > 57.1 µM |
| Cn1nc(NS(=O)(=O)C2CC2)c2cccc(-c3ccc(C#CC(C)(C)S(=O)(=O)C4CC4)nc3[C@H](Cc3cc(F)cc(F)c3)NC(=O)Cn3nc(C(F)F)c4c3C(F)(F)[C@@H]3C[C@H]43)c21 [Example 40] | 84% | 84% | > 57.1 µM |
| Cn1nc(NS(=O)(=O)CC2CC2)c2c(Cl)ccc(-c3ccc(C#CC(C)(C)S(=O)(=O)C4CC4)nc3[C@H](Cc3cc(F)cc(F)c3)NC(=O)Cn3nc(C(F)(F)F)c4c3C(F)(F)[C@@H]3C[C@H]43)c21 [Example 15] | 98% | 98% | > 57.1 µM |
| Cn1nc(NS(=O)(=O)C2(C)CC2)c2c(Cl)ccc(-c3ccc(C#CC(C)(C)S(=O)(=O)C4CC4)nc3[C@H](Cc3cc(F)cc(F)c3)NC(=O)Cn3nc(C(F)F)c4c3C(F)(F)[C@@H]3C[C@H]43)c21 [Example 20] | 89% | 89% | > 57.1 µM |
| Cn1nc(NS(=O)(=O)CC2CC2)c2c(Cl)ccc(-c3ccc(C#CC(C)(C)S(=O)(=O)C4CC4)nc3[C@H](Cc3cc(F)cc(F)c3)NC(=O)Cn3nc(C(F)F)c4c3C(F)(F)[C@@H]3C[C@H]43)c21 [Example 14] | 100% | 100% | > 57.1 µM |
| Cn1nc(NS(C)(=O)=O)c2c(Cl)ccc(-c3ccc(C#CC(C)(C)S(=O)(=O)C4CC4)nc3[C@H](Cc3cc(F)cc(F)c3)NC(=O)Cn3cc(C(F)(F)F)cn3)c21 [Example 65] | 27% | 100% | > 50 µM |
| Cn1nc(Nc2nnc(C3(O)CC3)o2)c2c(Cl)ccc(-c3ccc(C#CC(C)(C)S(=O)(=O)C4CC4)nc3[C@H](Cc3cc(F)cc(F)c3)NC(=O)Cn3nc(C(F)F)c4c3C(F)(F)[C@@H]3C[C@H]43)c21 [Example 28] | 99% | 99% | 16.5 µM |
| CC1(S(=O)(=O)Nc2nn(CC(F)F)c3c(-c4ccc(C#CC(C)(C)S(=O)(=O)C5CC5)nc4[C@H](Cc4cc(F)cc(F)c4)NC(=O)Cn4nc(C(F)F)c5c4C(F)(F)CCC5(F)F)ccc(Cl)c23)CC1 [Example 37] | 92% | 92% | > 57.1 µM |
| CC(C)(C#Cc1ccc(-c2ccc(Cl)c3c(NS(=O)(=O)CC4CC4)nn(CC(F)F)c23)c([C@H](Cc2cc(F)cc(F)c2)NC(=O)Cn2nc(C(F)(F)F)c3c2C(F)(F)[C@@H]2C[C@H]32)n1)S(=O)(=O)C1CC1 [Example 27] | 100% | 100% | > 57.1 µM |
| CC(C)(C#Cc1ccc(-c2ccc(Cl)c3c(NS(=O)(=O)C4CC4)nn(C4COC4)c23)c([C@H](Cc2cc(F)cc(F)c2)NC(=O)Cn2nc(C(F)F)c3c2C(F)(F)[C@@H]2C[C@H]32)n1)S(=O)(=O)C1CC1 [Example 41] | 100% | 100% | > 57.1 µM |
| Cn1nc(NS(C)(=O)=O)c2c(Cl)ccc(-c3ccc(C#CC(C)(C)S(=O)(=O)C4CC4)nc3[C@H](Cc3cc(F)cc(F)c3)NC(=O)Cn3ccnc3)c21 [Example 49] | 0% | 90% | > 57.1 µM |
| CC(C)(C#Cc1ccc(-c2ccc(Cl)c3c(NS(C)(=O)=O)nn(C4COC4)c23)c([C@H](Cc2cc(F)cc(F)c2)NC(=O)Cn2nc(C(F)F)c3c2C(F)(F)[C@@H]2C[C@H]32)n1)S(=O)(=O)C1CC1 [Example 18] | 100% | 100% | 41.6 µM |

From patent publication US11753399B2, “Therapeutic compounds” (Gilead Sciences, Inc., priority 2018, dated 2023)
